Paper PMC11784026, “Phase 1 study of the safety, tolerability, and pharmacokinetics of a synthetic macrocyclic peptide antibiotic (BRII-693) in healthy adult participants” (Antimicrobial Agents and Chemotherapy, 2024)
Values joined by “and” are separate entries in the source; they are usually repeats but may differ in a detail not shown here. Equal values may be shown once. Read-outs that look alike come from different tables or passages of the source. Where a SMILES comes first, the peptide text is derived from it. Bridges are numbered along the chain shown (N, C = ends). [ ]: non-standard residue; d: D form. The star is where a group is joined. X1 = O=C(c1ccc(Cl)cc1Cl)*; Dab = NCC[C@H](N)C(=O)O; Abu = CC[C@H](N)C(=O)O; Dap = NC[C@H](N)C(=O)O

Tests used:
[1] = Renal function: serum creatinine, RIFLE Risk criteria; format: in vivo, human (healthy adult participants); conditions: for Serum creatinine level: cohort 12, 150 mg q6h × 14 days
Source text: Safety assessments included repeated measures of laboratory testing, vital signs, ECGs, physical examinations, and adverse event (AE) monitoring and reporting conducted before, during, and after study drug administration. A >1.5× increase from baseline in creatinine was characterized as meeting the (RIFLE) “Risk” level (or Class R) criteria ([10]). Participants were confined at the clinical research unit for the duration of their study participation. For the SAD cohorts, confinement was from the day before dosing through day 3 (at least 48 hours after dosing). For the MAD cohorts, confinement was from the day before dosing through day 11 for cohorts 8 to 10 and through day 17 for cohorts 11 and 12.

CC[C@@H]1NC(=O)[C@@H](CC(C)C)NC(=O)[C@H](CCN)NC(=O)[C@@H](NC(=O)[C@H](CN)NC(=O)[C@@H](NC(=O)[C@H](CCN)NC(=O)c2ccc(Cl)cc2Cl)[C@@H](C)O)CCNC(=O)[C@H]([C@@H](C)O)NC(=O)[C@H](CCN)NC(=O)[C@H](CCN)NC1=O [BRII-693] (X1-[Dab]T[Dap][Dab][Dab][dL][Abu][Dab][Dab]T; lactam 4-C; N-terminus assumed)
Participants reporting AEs (7-day MAD cohorts 8–10, after multiple dosing, all BRII-693-treated (5 of 17)): 29.4% | Participants reporting AEs (7-day MAD cohorts 8–10, after single dosing on day 1, all BRII-693-treated (3 of 17)): 17.6% | Participants who discontinued the study due to treatment-related AE (headache, moderate) (7-day MAD, 200 mg, after the single dose on day 1 (One of 6)): 16.7% | Participants reporting AEs (7-day MAD, after multiple dosing, 100 mg q6h (2 of 6)): 33.3% | Participants reporting AEs (7-day MAD, after multiple dosing, 200 mg q6h (3 of 6)): 50.0% | Participants reporting AEs (7-day MAD, after single dosing on day 1, 150 mg (1 of 5)): 20.0% | Participants reporting AEs (7-day MAD, after single dosing on day 1, 200 mg (2 of 6)): 33.3% | Participants reporting AEs (SAD phase, 100 mg (1 of 6)): 16.7% | Participants reporting AEs (SAD phase, 200 mg (1 of 6)): 16.7% | Severity of AEs (SAD phase, all AEs (five events, placebo included)): mild in severity | Participants reporting AEs (SAD phase, all BRII-693-treated participants (2 of 41)): 4.9% | Participants reporting AEs (cohort 11, 150 mg q6h × 14 days, non-Chinese (5 of 10)): 50.0% | Participants reporting AEs (cohort 12, 150 mg q6h × 14 days, Chinese (Five of the 10)): 50.0% | Overall safety and tolerability (in vivo, iv): safe and well tolerated | Participants with creatinine elevation (>1.5× increase from baseline, RIFLE risk class) ([1]; 150 mg q6h × 14 days): 1 of 20 | Serum creatinine level after completion of therapy ([1]; 200 mg q6h × 7 days, first participant, day 11): 1.17 mg/dL | Peak serum creatinine level ([1]; 200 mg q6h × 7 days, one participant, day 10): 1.54 mg/dL | Serum creatinine level after completion of therapy ([1]; 200 mg q6h × 7 days, other participant, day 11): 1.10 mg/dL | Participants with creatinine elevation (>1.5× increase from baseline, RIFLE risk class) ([1]; 200 mg q6h × 7 days, reversible): Two of six and 2 of 6 | Peak serum creatinine level ([1]; 200 mg q6h × 7 days, the other participant, day 9): 1.64 mg/dL | Serum creatinine level ([1]; one participant, day 9): 1.74 mg/dL | Serum creatinine level ([1]; one participant, day 11): 1.72 mg/dL | Serum creatinine level ([1]; one participant, day 13): 2.07 mg/dL | Serum creatinine level ([1]; same participant, unscheduled visit after day 13): 1.39 mg/dL
